Laboratory results from the supplement of paper PMC11451515.

Test system: SEM cells
Assay: cell viability relative to DMSO control; higher = less cytotoxic
Conditions: 48 h
Outline: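 Before seeding, each leukemia line was adapted for at least four passages in each medium. NOMO1 or SEM cells (500 cells/well) and P12-Ichikawa cells (1000 cells/well) went into 1536-well plates at 5 μl, then received library compounds in DMSO by pin dosing across 11 threefold concentrations, 47 μM to 0.79 nM. Readout was CellTiter-Glo One luminescence after 48 h at 37°C, and viability is given as a per-plate percentage of DMSO wells, with cell-free wells as background.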

[1] = HPLM + 10% dialyzed FBS, 0.000781 µM
[2] = HPLM + 10% dialyzed FBS, 0.00234 µM
[3] = HPLM + 10% dialyzed FBS, 0.00702 µM
[4] = HPLM + 10% dialyzed FBS, 0.0211 µM
[5] = HPLM + 10% dialyzed FBS, 0.0632 µM
[6] = HPLM + 10% dialyzed FBS, 0.19 µM
[7] = HPLM + 10% dialyzed FBS, 0.569 µM
[8] = HPLM + 10% dialyzed FBS, 1.71 µM
[9] = HPLM + 10% dialyzed FBS, 5.12 µM
[10] = HPLM + 10% dialyzed FBS, 15.4 µM
[11] = HPLM + 10% dialyzed FBS, 46.1 µM
[12] = RPMI 5 mM glucose + 10% FBS, 0.000781 µM
[13] = RPMI 5 mM glucose + 10% FBS, 0.00234 µM
[14] = RPMI 5 mM glucose + 10% FBS, 0.00702 µM
[15] = RPMI 5 mM glucose + 10% FBS, 0.0211 µM
[16] = RPMI 5 mM glucose + 10% FBS, 0.0632 µM
[17] = RPMI 5 mM glucose + 10% FBS, 0.19 µM
[18] = RPMI 5 mM glucose + 10% FBS, 0.569 µM
[19] = RPMI 5 mM glucose + 10% FBS, 1.71 µM
[20] = RPMI 5 mM glucose + 10% FBS, 5.12 µM
[21] = RPMI 5 mM glucose + 10% FBS, 15.4 µM
[22] = RPMI 5 mM glucose + 10% FBS, 46.1 µM
[23] = RPMI 5 mM glucose + 10% dialyzed FBS, 0.000781 µM
[24] = RPMI 5 mM glucose + 10% dialyzed FBS, 0.00234 µM
[25] = RPMI 5 mM glucose + 10% dialyzed FBS, 0.00702 µM
[26] = RPMI 5 mM glucose + 10% dialyzed FBS, 0.0211 µM
[27] = RPMI 5 mM glucose + 10% dialyzed FBS, 0.0632 µM
[28] = RPMI 5 mM glucose + 10% dialyzed FBS, 0.19 µM
[29] = RPMI 5 mM glucose + 10% dialyzed FBS, 0.569 µM
[30] = RPMI 5 mM glucose + 10% dialyzed FBS, 1.71 µM
[31] = RPMI 5 mM glucose + 10% dialyzed FBS, 5.12 µM
[32] = RPMI 5 mM glucose + 10% dialyzed FBS, 15.4 µM
[33] = RPMI 5 mM glucose + 10% dialyzed FBS, 46.1 µM

Compound	cell viability [1] [%]	cell viability [2] [%]	cell viability [3] [%]	cell viability [4] [%]	cell viability [5] [%]	cell viability [6] [%]	cell viability [7] [%]	cell viability [8] [%]	cell viability [9] [%]	cell viability [10] [%]	cell viability [11] [%]	cell viability [12] [%]	cell viability [13] [%]	cell viability [14] [%]	cell viability [15] [%]	cell viability [16] [%]	cell viability [17] [%]	cell viability [18] [%]	cell viability [19] [%]	cell viability [20] [%]	cell viability [21] [%]	cell viability [22] [%]	cell viability [23] [%]	cell viability [24] [%]	cell viability [25] [%]	cell viability [26] [%]	cell viability [27] [%]	cell viability [28] [%]	cell viability [29] [%]	cell viability [30] [%]	cell viability [31] [%]	cell viability [32] [%]	cell viability [33] [%]
Cc1cn2cc(C(=O)N(C)CCO)cc(N[C@@H]3CCOc4cccc(C)c43)c2n1	90.6	107	106	101	105	107	113	114	109	113	104	84.3	88.8	75	87.1	80.7	82.9	95.8	81.1	87.2	67.6	81.5	88.9	93.7	90	110	95.3	113	94.1	106	108	95.6	94.9
Nc1ccc(C(=O)Nc2cccc(-c3nc(N4CCOCC4)c4oc5ncccc5c4n3)c2)cn1	119	120	130	113	115	107	96.3	116	90.1	85.8	4.82	88	80.1	71.8	75.2	83.9	68.1	71.7	77.4	57.9	38.9	3.46	129	119	116	111	114	102	104	107	79.1	64	5.84
O=C(O)c1cc(O)c2c(c1)C(=O)c1cccc(O)c1C2=O	112	113	103	108	110	116	89.7	111	96.8	92.9	91.9	105	108	105	106	104	120	108	111	97.9	92.9	84.4	119	116	108	117	118	105	111	113	116	96.6	84.9
C[C@]12CC[C@H]3[C@@H](CC(=C)\C4=C\C(=O)\C=C/[C@]34C)[C@@H]1CCC2=O	89.7	92.6	96.3	105	107	92.8	94.4	90.7	97.8	34.9	64.8	111	90.8	89.2	96.9	98	95.3	104	106	114	36.5	54.6	98.1	86.9	96.4	110	103	101	115	111	115	33.2	59.9
Nc1n[nH]c2nnc(-c3c(-c4ccccc4)nn4ccccc34)cc12	93.5	109	109	115	116	127	124	109	113	92.2	9.4	113	114	107	121	122	131	121	117	117	100	17.3	116	102	119	126	114	125	134	123	137	116	21
C[C@@H]1CC[C@@]2(CC[C@]3(C)\C(=C/C[C@@H]4[C@@]5(C)CC[C@H](O)C(C)(C)[C@@H]5CC[C@@]34C)[C@@H]2[C@H]1C)C(O)=O	85.6	109	111	110	112	116	123	122	108	117	121	105	101	108	96.2	113	123	109	99.2	102	114	61.6	107	116	114	111	112	118	118	136	129	118	110
O=C(/C=C/c1ccc(/C=C/C(=O)Nc2ccc(C3=NCCN3)cc2)cc1)Nc1ccc(C2=NCCN2)cc1	96.5	103	101	115	129	118	115	117	103	103	115	93.6	104	95.5	102	109	99.2	110	114	93.5	72.8	52.3	104	120	115	114	109	113	111	120	108	97.7	64.6
